Measured values: publication PMC12621043, “Un-LOK-ing a New Approach for Conformational Selective Targeting of STK10 (LOK)” (ACS Medicinal Chemistry Letters, 2025)

Each compound was assayed against T1, BMP2KA (Homo sapiens, UniProt Q9NSY1) (assay: DSF Tm panel). Settings: 10 μM compound.
T1 construct: purchased in-house DSF kinase panel (SGC-style construct names; the trailing letter is the construct ID)
T1 sequence (Q9NSY1 38-345): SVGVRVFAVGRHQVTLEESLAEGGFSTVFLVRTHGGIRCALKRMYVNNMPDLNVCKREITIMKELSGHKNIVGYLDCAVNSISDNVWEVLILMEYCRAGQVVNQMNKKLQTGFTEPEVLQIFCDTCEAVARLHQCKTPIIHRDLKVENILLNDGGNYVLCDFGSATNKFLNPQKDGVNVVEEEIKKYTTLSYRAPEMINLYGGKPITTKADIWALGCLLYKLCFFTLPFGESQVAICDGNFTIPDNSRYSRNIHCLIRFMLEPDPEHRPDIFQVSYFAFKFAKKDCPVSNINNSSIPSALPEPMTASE
Assay type: binding
For O=C(NCc1ccccc1)Nc1ccc2cc1OCCOCCNc1ccn3ncc-2c3n1 [compound 16], the ΔTm at 10 µM was 12.2 °C. Work on O=C(NCc1ccccc1Cl)Nc1ccc2cc1OCCOCCNc1ccn3ncc-2c3n1 [compound 17] yielded a ΔTm at 10 µM of 9.2 °C.

These compounds were tested against T2, AAK1 (AAK1A) (Homo sapiens, UniProt Q2M2I8) (assay: DSF Tm panel). Settings: 10 μM compound.
T2 construct: purchased in-house DSF kinase panel (SGC-style construct names; the trailing letter is the construct ID)
T2 sequence (Q2M2I8 27-365): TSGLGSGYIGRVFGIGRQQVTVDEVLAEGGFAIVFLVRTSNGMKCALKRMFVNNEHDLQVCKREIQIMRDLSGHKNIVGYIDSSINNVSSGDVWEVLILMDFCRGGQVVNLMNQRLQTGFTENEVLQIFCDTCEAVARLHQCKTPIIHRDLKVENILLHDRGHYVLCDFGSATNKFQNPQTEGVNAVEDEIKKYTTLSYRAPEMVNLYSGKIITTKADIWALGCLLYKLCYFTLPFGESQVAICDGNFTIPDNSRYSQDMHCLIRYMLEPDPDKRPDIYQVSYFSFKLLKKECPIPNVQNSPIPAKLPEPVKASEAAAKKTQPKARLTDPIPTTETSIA
Assay type: binding
O=C(NCc1ccccc1)Nc1ccc2cc1OCCOCCNc1ccn3ncc-2c3n1 [compound 16] showed a ΔTm at 10 µM of 8.3 °C. O=C(NCc1ccccc1Cl)Nc1ccc2cc1OCCOCCNc1ccn3ncc-2c3n1 [compound 17] showed a ΔTm at 10 µM of 7 °C.

The compounds below were run against T3, STK3 (STK3A) (Homo sapiens, UniProt Q13188) (assay: DSF Tm panel). Settings: 10 μM compound.
T3 construct: purchased in-house DSF kinase panel (SGC-style construct names; the trailing letter is the construct ID)
T3 sequence (Q13188 16-313): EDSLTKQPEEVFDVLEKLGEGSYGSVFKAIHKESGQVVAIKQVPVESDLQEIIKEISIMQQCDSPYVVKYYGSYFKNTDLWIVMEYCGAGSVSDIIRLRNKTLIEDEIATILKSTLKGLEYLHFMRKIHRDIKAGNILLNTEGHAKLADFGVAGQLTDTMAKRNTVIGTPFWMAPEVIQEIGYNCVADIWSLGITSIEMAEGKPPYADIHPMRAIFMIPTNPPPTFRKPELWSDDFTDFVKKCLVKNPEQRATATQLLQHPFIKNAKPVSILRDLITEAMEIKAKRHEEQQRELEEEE
Assay type: binding
Compound O=C(NCc1ccccc1)Nc1ccc2cc1OCCOCCNc1ccn3ncc-2c3n1 [compound 16] has a ΔTm at 10 µM of 5.9 °C. O=C(NCc1ccccc1Cl)Nc1ccc2cc1OCCOCCNc1ccn3ncc-2c3n1 [compound 17] showed a ΔTm at 10 µM of 6.2 °C.

Each compound was assayed against T4, STK4 (STK4A) (Homo sapiens, UniProt Q13043) (assay: DSF Tm panel). Settings: 10 μM compound.
T4 construct: purchased in-house DSF kinase panel (SGC-style construct names; the trailing letter is the construct ID)
T4 sequence (Q13043 1-311): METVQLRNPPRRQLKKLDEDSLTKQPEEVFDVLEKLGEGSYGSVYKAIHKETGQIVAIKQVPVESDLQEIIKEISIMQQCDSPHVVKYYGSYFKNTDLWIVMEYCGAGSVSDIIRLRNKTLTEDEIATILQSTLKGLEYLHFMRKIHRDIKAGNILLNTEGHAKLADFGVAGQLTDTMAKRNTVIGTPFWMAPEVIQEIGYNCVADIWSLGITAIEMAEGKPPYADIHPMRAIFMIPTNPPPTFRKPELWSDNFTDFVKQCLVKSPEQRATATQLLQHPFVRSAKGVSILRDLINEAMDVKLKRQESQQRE
Assay type: binding
Work on O=C(NCc1ccccc1)Nc1ccc2cc1OCCOCCNc1ccn3ncc-2c3n1 [compound 16] yielded a ΔTm at 10 µM of 4.9 °C. O=C(NCc1ccccc1Cl)Nc1ccc2cc1OCCOCCNc1ccn3ncc-2c3n1 [compound 17] was tested, and the ΔTm at 10 µM was 4.1 °C.

The compounds below were run against T5, DYRK1AA (Homo sapiens, UniProt Q13627) (assay: DSF Tm panel). Settings: 10 μM compound.
T5 construct: purchased in-house DSF kinase panel (SGC-style construct names; the trailing letter is the construct ID)
Assay type: binding
O=C(NCc1ccccc1)Nc1ccc2cc1OCCOCCNc1ccn3ncc-2c3n1 [compound 16] showed a ΔTm at 10 µM of 3.8 °C. O=C(NCc1ccccc1Cl)Nc1ccc2cc1OCCOCCNc1ccn3ncc-2c3n1 [compound 17] was tested, and the ΔTm at 10 µM was -1.3 °C.

Each compound was assayed against T6, MELKA (Homo sapiens, UniProt Q14680) (assay: DSF Tm panel). Settings: 10 μM compound.
T6 construct: purchased in-house DSF kinase panel (SGC-style construct names; the trailing letter is the construct ID)
T6 sequence (Q14680 1-340): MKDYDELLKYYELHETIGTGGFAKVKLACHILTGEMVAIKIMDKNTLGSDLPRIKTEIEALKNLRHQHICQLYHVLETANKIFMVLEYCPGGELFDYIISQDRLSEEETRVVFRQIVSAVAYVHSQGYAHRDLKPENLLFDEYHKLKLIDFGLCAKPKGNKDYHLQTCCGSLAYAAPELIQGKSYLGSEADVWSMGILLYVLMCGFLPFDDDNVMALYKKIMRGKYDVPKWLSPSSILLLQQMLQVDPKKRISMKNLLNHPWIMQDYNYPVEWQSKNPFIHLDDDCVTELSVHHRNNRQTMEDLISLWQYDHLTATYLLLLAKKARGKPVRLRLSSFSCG
Assay type: binding
O=C(NCc1ccccc1)Nc1ccc2cc1OCCOCCNc1ccn3ncc-2c3n1 [compound 16] showed a ΔTm at 10 µM of 2 °C. Work on O=C(NCc1ccccc1Cl)Nc1ccc2cc1OCCOCCNc1ccn3ncc-2c3n1 [compound 17] yielded a ΔTm at 10 µM of 2.4 °C.

The compounds below were run on RPS6KA1A (assay: DSF Tm panel). Settings: 10 μM compound.
Assay type: binding
For O=C(NCc1ccccc1)Nc1ccc2cc1OCCOCCNc1ccn3ncc-2c3n1 [compound 16], the “ΔTm RPS6KA1A” value was 1,4 °C. In the case of O=C(NCc1ccccc1Cl)Nc1ccc2cc1OCCOCCNc1ccn3ncc-2c3n1 [compound 17], the “ΔTm RPS6KA1A” value is reported as 1,2 °C.

What follows are compounds tested against T7, EPHA2 (EPHA2A) (Homo sapiens, UniProt P29317) (assay: DSF Tm panel). Settings: 10 μM compound.
T7 construct: purchased in-house DSF kinase panel (SGC-style construct names; the trailing letter is the construct ID)
T7 sequence (P29317 596-900): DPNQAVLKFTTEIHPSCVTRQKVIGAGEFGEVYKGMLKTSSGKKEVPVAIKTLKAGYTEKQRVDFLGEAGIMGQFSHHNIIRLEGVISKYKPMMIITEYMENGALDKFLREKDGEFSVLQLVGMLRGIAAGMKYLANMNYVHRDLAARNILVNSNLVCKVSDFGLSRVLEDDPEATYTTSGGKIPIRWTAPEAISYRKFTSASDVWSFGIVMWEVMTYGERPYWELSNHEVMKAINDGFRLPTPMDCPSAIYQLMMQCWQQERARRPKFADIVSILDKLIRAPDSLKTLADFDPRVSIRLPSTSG
Assay type: binding
O=C(NCc1ccccc1)Nc1ccc2cc1OCCOCCNc1ccn3ncc-2c3n1 [compound 16] was tested, and the ΔTm at 10 µM was 0.8 °C. O=C(NCc1ccccc1Cl)Nc1ccc2cc1OCCOCCNc1ccn3ncc-2c3n1 [compound 17] was tested, and the ΔTm at 10 µM was 0.5 °C.

These compounds were tested against T8, NEK1A (Homo sapiens, UniProt Q96PY6) (assay: DSF Tm panel). Settings: 10 μM compound.
T8 construct: purchased in-house DSF kinase panel (SGC-style construct names; the trailing letter is the construct ID)
T8 sequence (Q96PY6 1-328): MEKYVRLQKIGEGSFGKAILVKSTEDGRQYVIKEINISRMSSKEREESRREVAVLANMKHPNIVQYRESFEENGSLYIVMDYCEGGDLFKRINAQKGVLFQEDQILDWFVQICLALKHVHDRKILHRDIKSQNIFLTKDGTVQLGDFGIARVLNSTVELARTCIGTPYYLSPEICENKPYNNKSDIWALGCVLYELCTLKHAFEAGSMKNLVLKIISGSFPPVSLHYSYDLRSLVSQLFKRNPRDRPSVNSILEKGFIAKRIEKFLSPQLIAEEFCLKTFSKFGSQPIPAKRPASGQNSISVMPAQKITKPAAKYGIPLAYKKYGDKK
Assay type: binding
Compound O=C(NCc1ccccc1)Nc1ccc2cc1OCCOCCNc1ccn3ncc-2c3n1 [compound 16] has a ΔTm at 10 µM of 0.1 °C. O=C(NCc1ccccc1Cl)Nc1ccc2cc1OCCOCCNc1ccn3ncc-2c3n1 [compound 17] was tested, and the ΔTm at 10 µM was 0.2 °C.

Each compound was assayed against T9, MAPK13A (Homo sapiens, UniProt O15264) (assay: DSF Tm panel). Settings: 10 μM compound.
T9 construct: purchased in-house DSF kinase panel (SGC-style construct names; the trailing letter is the construct ID)
T9 sequence (O15264 1-365): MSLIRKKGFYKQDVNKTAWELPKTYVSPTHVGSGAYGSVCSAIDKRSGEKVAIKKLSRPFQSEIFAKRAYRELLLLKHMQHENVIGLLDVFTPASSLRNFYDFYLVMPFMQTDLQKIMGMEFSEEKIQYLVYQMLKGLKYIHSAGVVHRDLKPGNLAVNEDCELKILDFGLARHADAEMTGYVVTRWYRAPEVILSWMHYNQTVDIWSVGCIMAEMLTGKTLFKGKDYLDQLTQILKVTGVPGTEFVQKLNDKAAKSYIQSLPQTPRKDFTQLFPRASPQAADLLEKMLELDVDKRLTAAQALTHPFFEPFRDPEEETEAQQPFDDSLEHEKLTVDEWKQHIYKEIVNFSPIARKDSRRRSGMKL
Assay type: binding
Compound O=C(NCc1ccccc1)Nc1ccc2cc1OCCOCCNc1ccn3ncc-2c3n1 [compound 16] has a ΔTm at 10 µM of 0.1 °C. In the case of O=C(NCc1ccccc1Cl)Nc1ccc2cc1OCCOCCNc1ccn3ncc-2c3n1 [compound 17], the ΔTm at 10 µM is reported as 0.5 °C.

These compounds were tested against T10, CDKL1A (Homo sapiens, UniProt Q00532) (assay: DSF Tm panel). Settings: 10 μM compound.
T10 construct: purchased in-house DSF kinase panel (SGC-style construct names; the trailing letter is the construct ID)
T10 sequence (Q00532 1-303): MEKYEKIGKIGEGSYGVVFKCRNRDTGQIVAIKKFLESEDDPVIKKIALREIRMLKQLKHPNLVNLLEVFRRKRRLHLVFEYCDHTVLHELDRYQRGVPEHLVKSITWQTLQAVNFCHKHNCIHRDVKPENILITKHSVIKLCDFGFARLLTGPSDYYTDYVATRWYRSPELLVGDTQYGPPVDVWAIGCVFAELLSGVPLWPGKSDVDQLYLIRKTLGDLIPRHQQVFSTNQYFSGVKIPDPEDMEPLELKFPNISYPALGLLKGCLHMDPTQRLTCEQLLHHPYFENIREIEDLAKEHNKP
Assay type: binding
Work on O=C(NCc1ccccc1)Nc1ccc2cc1OCCOCCNc1ccn3ncc-2c3n1 [compound 16] yielded a ΔTm at 10 µM of -0.1 °C. For O=C(NCc1ccccc1Cl)Nc1ccc2cc1OCCOCCNc1ccn3ncc-2c3n1 [compound 17], the ΔTm at 10 µM was 0.4 °C.

These compounds were tested on CDC42BPAA (assay: DSF Tm panel). Settings: 10 μM compound.
Assay type: binding
For O=C(NCc1ccccc1)Nc1ccc2cc1OCCOCCNc1ccn3ncc-2c3n1 [compound 16], the “ΔTm CDC42BPAA” value was -0,2 °C. In the case of O=C(NCc1ccccc1Cl)Nc1ccc2cc1OCCOCCNc1ccn3ncc-2c3n1 [compound 17], the “ΔTm CDC42BPAA” value is reported as 0,1 °C.

The compounds below were run against T11, VRK1A (Homo sapiens, UniProt Q99986) (assay: DSF Tm panel). Settings: 10 μM compound.
T11 construct: purchased in-house DSF kinase panel (SGC-style construct names; the trailing letter is the construct ID)
T11 sequence (Q99986 1-396): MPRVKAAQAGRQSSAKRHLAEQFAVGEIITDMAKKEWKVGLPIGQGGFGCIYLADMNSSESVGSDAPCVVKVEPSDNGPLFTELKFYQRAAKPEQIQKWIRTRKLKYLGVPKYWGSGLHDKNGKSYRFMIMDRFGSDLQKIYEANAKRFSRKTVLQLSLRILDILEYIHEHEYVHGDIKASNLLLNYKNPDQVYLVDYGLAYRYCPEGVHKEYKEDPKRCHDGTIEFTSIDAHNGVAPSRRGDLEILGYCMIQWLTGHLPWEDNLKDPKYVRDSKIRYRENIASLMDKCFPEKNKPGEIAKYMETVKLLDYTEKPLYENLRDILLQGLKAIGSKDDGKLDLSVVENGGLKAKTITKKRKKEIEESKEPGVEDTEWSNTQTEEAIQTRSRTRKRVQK
Assay type: binding
In the case of O=C(NCc1ccccc1)Nc1ccc2cc1OCCOCCNc1ccn3ncc-2c3n1 [compound 16], the ΔTm at 10 µM is reported as -0.4 °C. O=C(NCc1ccccc1Cl)Nc1ccc2cc1OCCOCCNc1ccn3ncc-2c3n1 [compound 17] was tested, and the ΔTm at 10 µM was 0.1 °C.

These compounds were tested against T12, SLK (Homo sapiens, UniProt Q9H2G2) (assay: PhosphoSens in vitro activity assay). Settings: ATP 150 μM.
Assay type: biochemical
Work on O=C(NCc1ccccc1)Nc1ccc2cc1OCCOCCNc1ccn3ncc-2c3n1 [compound 16] yielded an IC50 of 9.36 ± 1.77 µM. With O=C(NCc1ccccc1Cl)Nc1ccc2cc1OCCOCCNc1ccn3ncc-2c3n1 [compound 17] the IC50 was 6.83 ± 1.58 µM.

The compounds below were run against T12, SLK (assay: NanoBRET target engagement assay). Settings: HEK293T cells.
Assay type: cell-based
Parameters: has a greater impact on the full-length protein than on the kinase domains; host or cells: HEK293T (ATCC CRL-3216)
O=C(NCc1ccccc1)Nc1ccc2cc1OCCOCCNc1ccn3ncc-2c3n1 [compound 16] gave an EC50 greater than 50 µM. O=C(NCc1ccccc1Cl)Nc1ccc2cc1OCCOCCNc1ccn3ncc-2c3n1 [compound 17] gave an EC50 greater than 50 µM.
